# Paper PMC10586506 (Drug Metabolism and Disposition, 2023)
# Counter-ions that a name gives are not always drawn. Like-named read-outs stand apart in the source and are kept apart here.
# Legend:
# [1] = humans, single 2.7 g dose of goldenseal; ref Gupta et al., 2015; cited from earlier work
# [2] = molecular target: T1, human PMAT (Homo sapiens, UniProt Q7RTT9); test: PMAT inhibition in HEK293-LV cells overexpressing the transporter; format: cell-based; settings: for inhibition at 10 µM / inhibition at 100 µM: read-out: PMAT (%) percent inhibition of transporter activity
# T1 sequence (Q7RTT9 1-530): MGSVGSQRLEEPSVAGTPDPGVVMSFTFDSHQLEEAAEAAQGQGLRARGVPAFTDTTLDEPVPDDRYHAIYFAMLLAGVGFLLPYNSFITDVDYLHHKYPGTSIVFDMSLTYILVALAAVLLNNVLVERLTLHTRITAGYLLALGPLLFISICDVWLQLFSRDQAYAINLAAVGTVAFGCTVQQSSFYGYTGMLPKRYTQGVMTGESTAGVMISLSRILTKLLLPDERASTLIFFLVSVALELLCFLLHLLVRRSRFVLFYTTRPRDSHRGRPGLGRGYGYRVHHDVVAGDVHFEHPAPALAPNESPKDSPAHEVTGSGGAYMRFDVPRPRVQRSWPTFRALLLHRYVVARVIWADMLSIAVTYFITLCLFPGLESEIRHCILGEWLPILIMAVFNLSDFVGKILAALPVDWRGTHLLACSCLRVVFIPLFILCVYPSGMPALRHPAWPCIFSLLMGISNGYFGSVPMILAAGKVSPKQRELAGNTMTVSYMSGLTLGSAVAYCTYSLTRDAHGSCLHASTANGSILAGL
# [3] = molecular target: T2, human OCT3 (Homo sapiens, UniProt O75751); test: OCT3 inhibition in HEK293-LV cells overexpressing the transporter; format: cell-based; settings: for inhibition at 10 µM / inhibition at 100 µM: read-out: OCT3 (%) percent inhibition of transporter activity
# T2 sequence (O75751 1-556): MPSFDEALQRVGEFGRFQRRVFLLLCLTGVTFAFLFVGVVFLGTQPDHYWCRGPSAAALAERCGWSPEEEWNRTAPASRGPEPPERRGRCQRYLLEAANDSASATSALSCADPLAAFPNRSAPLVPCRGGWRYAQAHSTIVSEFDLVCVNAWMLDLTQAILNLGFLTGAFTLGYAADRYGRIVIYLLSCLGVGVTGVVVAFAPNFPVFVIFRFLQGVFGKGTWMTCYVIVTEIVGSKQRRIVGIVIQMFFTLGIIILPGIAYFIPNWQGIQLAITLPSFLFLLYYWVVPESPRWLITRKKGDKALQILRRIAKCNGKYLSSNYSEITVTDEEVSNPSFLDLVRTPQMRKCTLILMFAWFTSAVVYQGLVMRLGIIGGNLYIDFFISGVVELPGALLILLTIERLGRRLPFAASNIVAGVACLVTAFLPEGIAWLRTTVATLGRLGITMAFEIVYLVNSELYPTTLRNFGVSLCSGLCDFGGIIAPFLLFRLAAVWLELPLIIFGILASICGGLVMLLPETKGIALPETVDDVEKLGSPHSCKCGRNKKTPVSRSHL
# [4] = Oral metformin/oral inhibitor pharmacokinetic study in mice; settings: for decrease in geometric mean metformin Cmax relative to vehicle: oral metformin 10 mg/kg with oral test article; for effect on metformin pharmacokinetics: oral metformin with oral test article
# [5] = system: human OCT1; settings: ref Nguyen et al., 2021, cited from earlier work; for IC50: read-out: IC50 OCT1, extract normalized to berberine
# [6] = humans; ref Nguyen et al., 2021; cited from earlier work
# [7] = molecular target: T3, human THTR2 (Homo sapiens, UniProt Q9BZV2); test: THTR2 inhibition in HEK293-LV cells overexpressing the transporter; format: cell-based; settings: for inhibition at 10 µM / inhibition at 100 µM: read-out: THTR2 (%) percent inhibition of transporter activity
# T3 sequence (Q9BZV2 1-496): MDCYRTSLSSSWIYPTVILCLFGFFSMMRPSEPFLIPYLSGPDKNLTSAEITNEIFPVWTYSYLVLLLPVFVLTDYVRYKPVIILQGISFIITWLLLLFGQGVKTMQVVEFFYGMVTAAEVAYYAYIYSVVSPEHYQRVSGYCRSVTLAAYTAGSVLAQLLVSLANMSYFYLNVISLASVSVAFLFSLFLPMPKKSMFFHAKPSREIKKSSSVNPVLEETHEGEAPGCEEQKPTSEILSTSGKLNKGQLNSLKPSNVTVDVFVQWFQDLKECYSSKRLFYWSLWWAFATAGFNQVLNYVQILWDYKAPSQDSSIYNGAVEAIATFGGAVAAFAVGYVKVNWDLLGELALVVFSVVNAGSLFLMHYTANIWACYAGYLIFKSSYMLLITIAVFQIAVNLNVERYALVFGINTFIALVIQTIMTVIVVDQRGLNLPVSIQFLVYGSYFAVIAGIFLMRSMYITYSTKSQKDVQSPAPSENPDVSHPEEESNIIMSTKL
# [8] = system: Caco-2 cell monolayers; settings: cited from earlier work
compound,measurement,setting,value
"COc1ccc2cc3[n+](cc2c1OC)CCc1cc2c(cc1-3)OCO2 [Berberine, Berberine chloride hydrate]",Cmax,[1],470 nM
same,inhibition of PMAT (in words),[2],inhibited
same,inhibition at 10 µM,[2],8%
same,inhibition at 100 µM,[2],71%
same,inhibition of OCT3 (in words),[3],inhibited
same,IC50 of berberine alone relative to goldenseal extract,"[3]; across OCT3, PMAT and THTR2, fold higher",2.8- to 7.4 fold
same,inhibition at 10 µM,[3],55%
same,inhibition at 100 µM,[3],95%
same,decrease in geometric mean metformin Cmax relative to vehicle,[4],no effect
same,effect on metformin pharmacokinetics,[4],no effect
same,IC50,[5],19 µM
same,inhibition of OCT1 (in words),[5],inhibited
same,estimated intestinal luminal inhibitor concentration,[6],354 µM
same,inhibition of THTR2 (in words),[7],inhibited
same,inhibition at 10 µM,[7],-2%
same,inhibition at 100 µM,[7],43%
"CN(C)C(=N)N=C(N)N [metformin, Metformin hydrochloride salt]",percent contribution of OCT1 to metformin uptake,"[8]; ref Han et al., 2015",25%
same,percent contribution of PMAT to metformin uptake,"[8]; ref Han et al., 2015",20%
same,percent contribution of SERT to metformin uptake,"[8]; ref Han et al., 2015",20%
same,percent contribution of choline transporter to metformin uptake,"[8]; ref Han et al., 2015",15%
same,percent contribution of passive diffusion to metformin uptake,"[8]; ref Han et al., 2015",20%
same,percent contribution of OCT3 to metformin uptake,"[8]; ref Shirasaka et al., 2022",10%
same,percent contribution of PMAT to metformin uptake,"[8]; ref Shirasaka et al., 2022",10%
same,percent contribution of SERT to metformin uptake,"[8]; ref Shirasaka et al., 2022",2%
same,percent contribution of THTR2 to metformin uptake,"[8]; ref Shirasaka et al., 2022",22%
same,percent contribution of other (unidentified) transporters to metformin uptake,"[8]; ref Shirasaka et al., 2022",1%
same,percent contribution of passive diffusion to metformin uptake,"[8]; ref Shirasaka et al., 2022",55%
"COc1ccc2c(c1OC)C(=O)O[C@@H]2[C@H]1c2cc3c(cc2CCN1C)OCO3 [(–)-β-hydrastine, (–)-β-Hydrastine]",Cmax,[1],1.75 nM
same,inhibition at 10 µM,[2],-9%
same,inhibition at 100 µM,[2],37%
same,inhibition at 10 µM,[3],3%
same,inhibition at 100 µM,[3],24%
same,decrease in geometric mean metformin Cmax relative to vehicle,[4],no effect
same,effect on metformin pharmacokinetics,[4],no effect
same,IC50,[5],6.6 µM
same,inhibition of OCT1 (in words),[5],only inhibited OCT1
same,inhibition at 10 µM,[7],7%
same,inhibition at 100 µM,[7],-4%
"CN1CCc2cc3c(cc2C1O)OCO3 (stereo not drawn) [Hydrastinine, Hydrastinine chloride monohydrate]",inhibition of PMAT (in words),[2],did not inhibit
same,inhibition at 10 µM,[2],11%
same,inhibition at 100 µM,[2],43%
same,inhibition of OCT3 (in words),[3],did not inhibit
same,inhibition at 10 µM,[3],-5%
same,inhibition at 100 µM,[3],-3%
same,inhibition of OCT1 (in words),[5],did not inhibit
same,inhibition of THTR2 (in words),[7],did not inhibit
same,inhibition at 10 µM,[7],2%
same,inhibition at 100 µM,[7],19%
